Laboratory results as given in patent EP4501920A1, “NOVEL PYRAZOLE DERIVATIVES” (Aptabio Therapeutics Inc., priority 2022, dated 2023).

Key:
[1] = test system: human foreskin fibroblasts (HFF-1, ATCC); assay: Collagen gel contraction induced by TGF-β1; type: cell-based; conditions: HFF-1 cells and bovine type I collagen; TGF-β1 (10 ng/ml); 72 hours; FIG. 7
Text: In order to confirm the effect of the compounds of Synthetic examples on differentiation of fibroblasts into myofibroblasts, the inhibitory effect of the compounds of Synthetic examples on the phenomenon of contraction of gel induced by interaction of human foreskin fibroblasts (HFF-1, ATCC) and collagen was observed.
The mixed solution of the HFF-1 cells and collagen (bovine type I collagen) prepared at a concentration of 3×10^6 cells/ml was aliquoted in a 24 well plate, respectively, and then cultured under the condition of 5% CO2, 37 °C for 1 hour to induce gel polymerization. Then, after suspending the gel attached on the plate from the plate using a spoon, a medium comprising TGF-β1 and Synthetic example compounds was added to each well. After culturing for 72 hours, the Synthetic example compounds were treated by 10, 20, 30, 40, 60 and 80 µM to measure the size of the gel, and thereby, the degree of contraction of the gel by drug treatment was confirmed.

IL-8 = assay: Expression of IL-8 in pancreatic cancer associated fibroblasts (ELISA); type: cell-based, human; conditions: P.CAF cells; compounds 10, 20, 30, 40, 60 and 80 µM for 48 hours; FIG. 6
Experimental: (§1) In order to confirm the effect of the compounds of Synthetic examples of the present invention on inflammation reaction in cancer associated fibroblasts, whether the expression of IL6 and IL8 was inhibited by the compounds of Synthetic examples in pancreatic cancer associated fibroblasts (PCAF) was observed.
(§2) After inoculating 1.5×10^5 cells in a 6 well plate and then culturing in P.CAF complete media for 48 hours, the compounds of Synthetic examples were treated by 10, 20, 30, 40, 60 and 80 µM for 48 hours according to each condition, and then the expression of IL-6 and IL-8 was confirmed by performing ELISA with Quantkine ELISA kit (R&D systems) as follows.
(§3) 100 µl of the culture solution in which the compounds of Synthetic examples were treated for 48 hours was added to the microplate strip for analysis including a 100 µl assay diluent and left at a room temperature for 2 hours and then the contents were removed, and then it was washed with 400 µl wash buffer 4 times. 200 µl of a human IL-6 or IL-8 conjugate was added and left at a room temperature for 2 hours and then the contents were removed, and then it was washed with 400 µl wash buffer 4 times. 200 µl of substrate solution was added and left at a room temperature for 20 minutes and then 50 µl of stop solution was added, and the absorbance at a wavelength of 450nm was measured within 30 minutes to confirm the expression level of IL-6 and IL-8.

IL-6 = assay: Expression of IL-6 in pancreatic cancer associated fibroblasts (ELISA); type: cell-based, human; conditions: P.CAF cells; compounds 10, 20, 30, 40, 60 and 80 µM for 48 hours; FIG. 5
Experimental: as §1, §2, §3

[2] = test system: N27 (rat dopaminergic neural cell, Sigma) cells; assay: ROS production induced by alpha-synuclein preformed fibril (PFF) in dopaminergic neural cells (CellROX-Deep Red); type: cell-based; conditions: 0.001 µM, 24 hours, FIG. 2
Experimental: In order to confirm the effect of the compounds of Synthetic examples on ROS production from dopaminergic neural cells, ROS production was induced by alpha-synuclein preformed fibril (PFF) stimulation on N27 (rat dopaminergic neural cell, Sigma) cells and under this condition, the inhibitory effect of ROS production of the compounds of Synthetic examples was observed.
The N27 cells were cultured in RPMI medium containing 10% FBS, 1 µM angiotensin II, and the prepared cells were aliquoted at a concentration of 4×10^3 cells/well on a 6-well plate. The ROS production stimulus, PFF (preformed fibril) and the compounds of Synthetic examples were treated to the cells. After treating the compounds of Synthetic examples for 24 hours, fluorescence of each well was measured using CellROX-Deep Red reagent, thereby confirming the degree of ROS production.

[3] = test system: alpha-synuclein preformed fibril (PFF) injection Parkinson's disease mouse model; assay: Brain damage treatment effect in PFF injection Parkinson's disease mouse model; type: in vivo, C57Bl/6 mice; conditions: 25 mg/kg orally once a day for 7 weeks
Experimental: In order to test the effect for preventing or treating brain disease or disorder of the compounds of Synthetic examples, it was evaluated using an alpha-synuclein preformed fibril (PFF) injection Parkinson's disease mouse model.
C57Bl/6 mice were used, and all the mice were maintained under the standard condition. The experiment was conducted by dividing the experimental animals into a normal control group in which distilled water was orally administered (negative control), an alpha-synuclein preformed fibril (PFF) injection Parkinson's disease induction group (vehicle control), and an experimental group in which the compound of Synthetic example 16 of 25 mg/kg was orally administered into the alpha-synuclein preformed fibril (PFF) injection Parkinson's induction group daily (Synthetic example) with 8 animals in each group. For the normal control group, physiological saline solution was administered, and the Synthetic example compound was orally administered once a day for 7 weeks, and then a behavior change experiment and a histopathological experiment were performed.
The behavior change was analyzed by Rota rod, pole test and hindlimb clasping, and the average value of the 3 experiments per each animal was measured. […]

[4] = test system: NHLF (normal human lung fibroblast); assay: ROS production induced by PMA in NHLF cells; type: cell-based; conditions: FIG. 1
Text: (§4) In order to confirm the effect of the compounds of Synthetic examples on ROS production from fibroblasts and specific substrate cells, ROS production was induced by stimulation of PMA (phorbol 12-myristate 13-acetate), TGF-β1, palmitate or high concentration-glucose, or the like, in HL-60 cells differentiated into neutrophil cells by DMSO treatment, NHLF (normal human lung fibroblast, Lonza), LX-2 (human hepatic stellate cells, Sigma), ARPE19 (human retinal pigment epithelial cell, ATCC), and KEL-FIB (Keloid fibroblast, ATCC) cells, and under this condition, the inhibitory effect of ROS production of the compounds of Synthetic examples was observed.
(§5) The NHLF (normal human lung fibroblast, Lonza), LX-2 (human hepatic stellate cells, Sigma), ARPE19 (human retinal pigment epithelial cell, ATCC), KEL-FIB (keloid fibroblast, ATCC) cells were suspended in a culture medium containing 10% FBS and aliquoted on a 96 well plate and then cultured under the condition of 5% CO2, 37°C for 24 hours. After pre-treating the compounds of Synthetic examples at a concentration of 10, 20, 30, 40, 60 and 80 µM for 30 minutes to 1 hour, the ROS stimulus was treated to each well containing the cells and drug. After additional culturing for 48 hours, the ROS production level was confirmed using L-012 or DCF-DA.

[5] = test system: LX-2 (human hepatic stellate cells); assay: ROS production induced by PMA in LX-2 cells; type: cell-based; conditions: FIG. 1
Text: as §4, §5

CN(Cc1ccc(F)cc1F)C1CCc2nn(-c3ccccn3)c(O)c2C1 (stereo not drawn) [Compound 5, 5-[(2,4-Difluorobenzyl)methylamino]-2-(pyridin-2-yl)-4,5,6,7-tetrahydro-2H-indazol-3-ol]
contraction of the gel induced by TGF-β1 [1]: effectively inhibited
IL-8 expressed in P.CAF (IL-8): effectively inhibited
IL-6 expressed in P.CAF (IL-6): effectively inhibited

CN(Cc1ccc(S(C)(=O)=O)cc1)C1CCc2nn(-c3ccccn3)c(O)c2C1 (stereo not drawn) [Compound 12, 5-[(4-Methanesulfonylbenzyl)methylamino]-2-(pyridin-2-yl)-4,5,6,7-tetrahydro-2H-indazol-3-ol]
contraction of the gel induced by TGF-β1 [1]: effectively inhibited
ROS production induced by PFF [2]: effectively inhibited

COc1cccc(CN(C)C2CCc3nn(-c4ccccn4)c(O)c3C2)c1 (stereo not drawn) [Compound 13, 5-[(3-Methoxybenzyl)methylamino]-2-(pyridin-2-yl)-4,5,6,7-tetrahydro-2H-indazol-3-ol]
contraction of the gel induced by TGF-β1 [1]: effectively inhibited

Oc1c2c(nn1-c1ccccn1)CCC(N1CCCCC1)C2 (stereo not drawn) [Compound 14, 5-Piperidin-1-yl-2-(pyridin-2-yl)-4,5,6,7-tetrahydro-2H-indazol-3-ol]
contraction of the gel induced by TGF-β1 [1]: effectively inhibited

CN1CCN(C2CCc3nn(-c4ccccn4)c(O)c3C2)CC1 (stereo not drawn) [Compound 16, 5-(4-Methylpiperazin-1-yl)-2-(pyridin-2-yl)-4,5,6,7-tetrahydro-2H-indazol-3-ol]
contraction of the gel induced by TGF-β1 [1]: effectively inhibited
ROS production induced by PFF [2]: effectively inhibited
Parkinson-like behavior symptoms improved ([3]; Rota rod, pole test, hindlimb clasping): ≥ 50%
aggregation and accumulation of a-synuclein improved ([3]; striatum histopathology): ≥ 50%

OCCOCCN1CCN(C2CCc3nn(-c4ccccn4)c(O)c3C2)CC1 (stereo not drawn) [Compound 17]
ROS production induced by PMA [4]: inhibited
ROS production induced by PMA [5]: inhibited

CN(Cc1cccc(S(C)(=O)=O)c1)C1CCc2nn(-c3ccccn3)c(O)c2C1 (stereo not drawn) [Compound 23, 5-[Methyl(3-methylsulfonylbenzyl)amino]-2-(pyridin-2-yl)-4,5,6,7-tetrahydro-2H-indazol-3-ol]
contraction of the gel induced by TGF-β1 [1]: effectively inhibited
IL-8 expressed in P.CAF (IL-8): effectively inhibited
IL-6 expressed in P.CAF (IL-6): effectively inhibited

Oc1c2c(nn1-c1ccccn1)CCC(Nc1ccc(F)c(F)c1)C2 (stereo not drawn) [Compound 32, 5-(3,4-Difluorophenylamino)-2-(pyridin-2-yl)-4,5,6,7-tetrahydro-2H-indazol-3-ol]
ROS production induced by PFF [2]: effectively inhibited

CN(C1CCc2nn(-c3ccccn3)c(O)c2C1)C1CCCc2cccnc21 (stereo not drawn) [Compound 33, 5-[Methyl(5,6,7,8-tetrahydroquinolin-8-yl)amino]-2-(pyridin-2-yl)-4,5,6,7-tetrahydro-2H-indazol-3-ol]
contraction of the gel induced by TGF-β1 [1]: effectively inhibited
IL-8 expressed in P.CAF (IL-8): effectively inhibited
IL-6 expressed in P.CAF (IL-6): effectively inhibited

O=C(C1CC1)N1CCN(C2CCc3nn(-c4ccccn4)c(O)c3C2)CC1 (stereo not drawn) [Compound 38, Cyclopropyl[4-(3-hydroxy-2-(pyridin-2-yl)-4,5,6,7-tetrahydro-2-indazol-5-yl)piperazin-1-yl]methanone]
contraction of the gel induced by TGF-β1 [1]: effectively inhibited
IL-8 expressed in P.CAF (IL-8): effectively inhibited
IL-6 expressed in P.CAF (IL-6): effectively inhibited

CN(Cc1cc2ccccc2cn1)C1CCc2nn(-c3ccccn3)c(O)c2C1 (stereo not drawn) [Compound 62, 5-[(Isoquinolin-3-ylmethyl)methylamino]-2-(pyridin-2-yl)-4,5,6,7-tetrahydro-2H-indazol-3-ol]
contraction of the gel induced by TGF-β1 [1]: effectively inhibited
IL-8 expressed in P.CAF (IL-8): effectively inhibited
IL-6 expressed in P.CAF (IL-6): effectively inhibited

CN(Cc1ccc2ncccc2c1)C1CCc2nn(-c3ccccn3)c(O)c2C1 (stereo not drawn) [Compound 63, 5-[Methyl(quinolin-6-ylmethyl)amino]-2-(pyridin-2-yl)-4,5,6,7-tetrahydro-2H-indazol-3-ol]
contraction of the gel induced by TGF-β1 [1]: effectively inhibited
IL-8 expressed in P.CAF (IL-8): effectively inhibited
IL-6 expressed in P.CAF (IL-6): effectively inhibited

CN1CCN(C2CCc3nn(-c4ccc(C(F)(F)F)cn4)c(O)c3C2)CC1 (stereo not drawn) [Compound 82, 5-(4-Methylpiperazin-1-yl)-2-(5-(trifluoromethyl)pyridin-2-yl)-4,5,6,7-tetrahydro-2H-indazol-3-ol]
ROS production induced by PFF [2]: effectively inhibited
